{"source": "ChEMBL document CHEMBL5608239", "about": "“Structure, Function, and Activity of Small Molecule and Peptide Inhibitors of Protein Arginine Methyltransferase 1” (J Med Chem, 2024)", "key": {"[1]": {"biological_target": "T1, Protein arginine N-methyltransferase 1 (Homo sapiens, UniProt Q99873)", "T1 sequence (Q99873 whole entry)": "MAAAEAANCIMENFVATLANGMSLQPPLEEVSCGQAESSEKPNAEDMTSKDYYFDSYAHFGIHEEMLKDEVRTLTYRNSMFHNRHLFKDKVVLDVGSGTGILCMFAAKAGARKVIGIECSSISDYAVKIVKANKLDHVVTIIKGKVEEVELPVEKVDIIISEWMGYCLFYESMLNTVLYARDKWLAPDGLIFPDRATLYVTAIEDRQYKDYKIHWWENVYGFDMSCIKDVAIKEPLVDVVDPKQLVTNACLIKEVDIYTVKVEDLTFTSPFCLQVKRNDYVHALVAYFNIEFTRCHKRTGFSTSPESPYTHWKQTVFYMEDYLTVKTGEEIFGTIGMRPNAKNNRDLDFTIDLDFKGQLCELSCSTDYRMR"}, "[2]": {"biological_target": "T1, Protein arginine N-methyltransferase 1", "assay": "Inhibition of PRMT1 (unknown origin) using Histone H4 as substrate incubated for 1 hr by fluorescence based analysis"}, "[3]": {"biological_target": "T1, Protein arginine N-methyltransferase 1", "assay": "Inhibition of human PRMT1 using [3H]methylated biotin-labeled peptide as substrate by scintillation proximity assay"}, "[4]": {"biological_target": "T1, Protein arginine N-methyltransferase 1", "assay": "Inhibition of 6His-tagged human recombinant PRMT1 using Histone H4 as substrate"}}, "note": "Numbered stars: 1 amine (or outer) side, 2 acyl side, 3 side chain; on linkers, the order of the positions; unused ones are H or OH. Square brackets hold non-standard residues; d marks the D form. Peptide text beside a SMILES is read from it. X1 = N=C(NCCC[C@H](N[*:1])C(=O)[*:2])NCCC[C@H]1O[C@@H](n2cnc3c(N)ncnc32)[C@H](O)[C@@H]1O", "data": [{"smiles": "N=C(NCCCCC(N)C(N)=O)NCCCSC[C@H]1O[C@@H](n2cnc3c(N)ncnc32)[C@H](O)[C@@H]1O", "note": "(some centres undefined)", "values": [{"measurement": "IC50", "setting": "[1]", "value": 3, "unit": "µM"}, {"measurement": "IC50", "setting": "[2]", "value": 3, "unit": "µM"}]}, {"smiles": "CC(=O)N[C@@H](CO)C(=O)NCC(=O)N[C@@H](CCCNC(=N)NCCC[C@H]1O[C@@H](n2cnc3c(N)ncnc32)[C@H](O)[C@@H]1O)C(=O)NCC(=O)N[C@@H](CCCCN)C(=O)NCC(=O)NCC(=O)N[C@@H](CCCCN)C(N)=O", "note": "(Ac-SG[X1]GKGGK-NH2)", "values": [{"measurement": "IC50", "setting": "[3]", "value": 1.33, "unit": "µM"}]}, {"smiles": "C[C@@H](O)[C@H](NC(=O)CNC(=O)CNC(=O)[C@H](CCCNC(=N)NCCC[C@H](N)C(=O)O)NC(=O)[C@H](CO)NC(=O)[C@@H](NC(=O)CNC(=O)CNC(=O)[C@@H](N)Cc1c[nH]c2ccccc12)[C@@H](C)O)C(=O)NCC(=O)NCC(=O)N[C@@H](Cc1c[nH]c2ccccc12)C(=O)O", "values": [{"measurement": "IC50", "setting": "[4]", "value": "> 500", "unit": "µM"}]}]}
